These results are taken from paper PMC7585386 (ACS chemical biology, 2020).

A word on the IC50: it is the point on the concentration scale where inhibition reaches its midpoint.

Each structure is given as a SMILES string.

The test concerns the target calcium-dependent protein kinase 1 (CDPK1, CDPK1^G; TGGT1_301440) (Toxoplasma gondii, UniProt Q9BJF5). Briefly: kinase assay with recombinant purified enzyme in excess calcium. In kind it is biochemical.

For `Cc1cccc(Cc2nn(C(C)(C)C)c3ncnc(N)c23)c1` [3-MB, 3-MB-PP1], the IC50 came to 79 nM.
